Structures are written as SMILES.

Data on twelve compounds can be found in patent US4391816A, “N-(Naphthalenylthioxomethyl)aminoacid derivatives” (Ayerst, McKenna & Harrison Inc., priority 1981, dated 1983).

For assay [1], the target named is T1, aldose reductase (Bos taurus, UniProt P16116).
T1 construct: preparation of the enzyme from bovine lens; from tissue; host or cells: bovine lens
In words: in vitro aldose reductase inhibition (enzyme from bovine lens, modified Hayman and Kinoshita procedure). It is filed as biochemical. Conditions: for inhibition at 10 µM: 10^-5 molar, read-out: % Inhibition at Different Molar Concentrations (in vitro), 10^-5; for inhibition at 1 µM: 10^-6 molar, read-out: % Inhibition at Different Molar Concentrations (in vitro), 10^-6; for inhibition at 0.1 µM: 10^-7 molar, read-out: % Inhibition at Different Molar Concentrations (in vitro), 10^-7. The method, then: In the present case the procedure of Hayman and Kinoshita is modified in that the final chromatography step is omitted in the preparation of the enzyme from bovine lens.
The following results were obtained when the compounds of this invention were evaluated in the above in vitro test.

In assay [2] the test system is aldose reductase. Conditions: reported in the literature; cited from earlier work.

For the compound `O=C(O)CN(C(=S)c1cccc2c(Br)cccc12)c1ccc(Cl)cc1` [R^1=4-Cl--C6 H4, R^2=H, R^3=5-Br, n=O, N-[(5-bromo-1-naphthalenyl)thioxomethyl]-N-(4-chlorophenyl)glycine], on aldose reductase [1], the inhibition at 10 µM amounted to 86%, the inhibition at 1 µM was found to be 80% and the inhibition at 0.1 µM was found to be 39%.
As to `O=C(O)CN1C(=O)c2cccc3cccc(c23)C1=O` [1,3-Dioxo-1H-benz[de]isoquinoline-2(3H)-acetic acid], the “inhibition of aldose reductase (in words)” value in the assay on aldose reductase [2] was “effective inhibitor of aldose reductase”.
On to `O=C(O)CN(CC(=O)O)C(=S)c1cccc2c(Br)cccc12` [R^1=CH2 COOH, R^2=H, R^3=5-Br, n=O, N-[(5-bromo-1-naphthalenyl)thioxomethyl]-N-(carboxymethyl)glycine], for which, on aldose reductase [1], the inhibition at 10 µM worked out at 46% and the inhibition at 1 µM worked out at 7%.
On to `O=C1NC(=O)[C@@]2(CCOc3ccc(F)cc32)N1` [sorbinil, (S)-6-Fluoro-2,3-dihydrospiro(4H-1-benzopyran-4,4'-imidazolidine)-2',5'-dione], for which the “inhibition of aldose reductase (in words)” value in the assay with aldose reductase [2] is “aldose reductase inhibiting properties”.
Regarding `CC(C(=O)O)N(C)C(=S)c1cccc2c(Br)cccc12` (centres unmarked) [R^1=CH3, R^2=CH3, R^3=5-Br, n=O *], on aldose reductase [1], the inhibition at 10 µM worked out at 18%.
For `CN(CC(=O)O)C(=S)c1cccc2ccc(Br)cc12` [R^1=CH3, R^2=H, R^3=7-Br, n=O, N-[(7-bromo-1-naphthalenyl)thioxomethyl]-N-methylglycine], on aldose reductase [1], the inhibition at 10 µM worked out at 86%, the inhibition at 1 µM came out at 58% and the inhibition at 0.1 µM stood at 15%.
The corresponding values for `CN(CC(=O)O)C(=S)c1cc(Br)cc2ccccc12` [R^1=CH3, R^2=H, R^3=3-Br, n=O, N-[(3-Bromo-1-naphthalenyl)thioxomethyl]-N-methylglycine] are 90%, 74% and 28%.
Take `COc1ccc(C(=S)N(C)CC(=O)O)c2cccc(S(=O)(=O)N(C)C)c12` [N-[[4-methoxy-5-(dimethylaminosulfonyl)-1-naphthalenyl]thioxomethyl]-N-methylglycine]: on aldose reductase [1], the inhibition at 10 µM was determined as 80%, the inhibition at 1 µM amounted to 35% and the inhibition at 0.1 µM was determined as 6%.
In the case of `CN(CCCC(=O)O)C(=S)c1cccc2c(Br)cccc12` [R^1=CH3, R^2=H, R^3=5-Br, n=2, N-[(5-bromo-1-naphthalenyl)thioxomethyl]-N-methyl-4-aminobutanoic acid], the inhibition at 10 µM at aldose reductase [1] turned out to be 37%.
As to `COc1c(Cl)cc(C(=S)N(C)CC(=O)O)c2cccc(S(=O)(=O)N(C)C)c12` [N-[[3-chloro-4-methoxy-5-(dimethylaminosulfonyl)-1-naphthalenyl]thioxomethyl]-N-methylglycine], on aldose reductase [1], the inhibition at 10 µM was determined as 91%, the inhibition at 1 µM is 67% and the inhibition at 0.1 µM is 19%.
As for `O=C(O)[C@@H]1CCCN1C(=S)c1cccc2c(Br)cccc12` [R^1 R^2=CH2 CH2 CH2, R^3=5-Br, n=O, N-[(5-bromo-1-naphthalenyl)thioxomethyl]-L-proline], at aldose reductase [1], the inhibition at 10 µM was 56% and the inhibition at 1 µM was 26%.
Turning to `CN(CC(=O)O)C(=S)c1cccc2cc(Br)ccc12` [R^1=CH3, R^2=H, R^3=6-Br, n=O, N-[(6-bromo-1-naphthalenyl)thioxomethyl)-N-methylglycine], at aldose reductase [1], the inhibition at 10 µM was determined as 91%, the inhibition at 1 µM is 75% and the inhibition at 0.1 µM worked out at 18%.
